Here are results for one molecule from patent publication US20230090094A1, “HEMP EXTRACT FOR TREATMENT OF PAIN, CANCER AND EPILEPSY IN ANIMALS” (ElleVet Sciences, priority 2019, published 2023).

Series [1] in a line: Single-dose oral pharmacokinetics of CBD oil in beagles. It is filed as in vivo, dogs. The settings on record: industrial hemp. The protocol:
The dogs were fed two hours after dosing. […] Attitude, behavior, proprioception, and gait were subjectively evaluated at each time point during free running/walking and navigation around standard traffic cones (weaving). […] Blood samples were obtained via jugular venipuncture and transferred to a coagulation tube for 20 minutes. Samples were centrifuged (VWR, Clinical Centrifuge) at 3,600×g for 10 minutes; serum was removed and stored at −80° C. until analysis using liquid chromatography-mass spectrometry (LC-MS) at Colorado State University Core Mass Spectrometry facility.
CBD was extracted from canine serum using a combination of protein precipitation and liquid-liquid extraction using n-hexane, with minor modifications for microflow ultra-high pressure liquid chromatography (UHPLC). Briefly, 0.05 ml of canine serum was subjected to protein precipitation in the presence of ice-cold acetonitrile (80% final concentration), spiked with deuterated CBD as the internal standard (0.06 mg/ml, CDB-d3 Cerilliant, Round Rock, Tex., USA). 0.2 ml of water was added to each sample prior to the addition of 1.0 ml of hexane to enhance liquid-liquid phase separation. Hexane extract was removed and concentrated to dryness under laboratory nitrogen. Prior to LC-MS analysis, samples were resuspended in 0.06 mL of 100% acetonitrile. A standard curve using the CBD analytical standard was prepared in canine serum non-exposed to CBD and extracted as above.
From the UHPLC-QQQ-MS data, peak areas were extracted for CBD detected in biological samples and normalized to the peak area of the internal standard CBD-d3, in each sample using Skyline as well as an in-house R Script (www.r-project.org). […] Pharmacokinetic variables were estimated by means of non-compartmental analysis, utilizing a pharmacokinetic software package (PK Solution, version 2.0, Montrose, Colo., USA).

Series [2] is described as follows: Feline serum cannabidiol quantification and pharmacokinetics (LC-MS/MS). It counts as in vivo, cats. To be noted: for Cannabidiol in serum: individual cats, replicates A/B, ppb = ng/mL, LOD 1.9, LOQ 6.2. The method, then:
On the first day of dosing, blood was collected for a PK analysis from 6 of the 8 cats. The most cooperative cats were selected for the PK analysis. […] Samples were placed into a red top clotting tube with no serum separator. […] The harvested serum was placed in cyrovials stored at −70° C. Each tube was labeled with the cat id, date of collection and collection time point. Samples were shipped overnight on dry ice to the Proteomics & Metabolomics Facility at Colorado State University.
Aliquots of feline serum were delivered to the facility on dry ice and stored at −80° C. upon receipt. […] of cold (−20C.) 100% Acetonitrile (spiked with 60 ng/mL of d3-CBD) was added to each sample and vortexed at room temperature for 5 minutes. 200 μL of water was added and vortexed for an additional 5 minutes. 1 ml of 100% hexane was then added to each sample and vortexed for a final 5 minutes. […] The upper hexane layer was transferred to new-labeled glass vials (˜900 uL per sample), carefully avoiding the middle and lower layers.
An 8 point standard curve of CBD was generated in matrix background using a blank serum. Concentrations ranged from 0 ng/mL 1000 ng/mL (3.2X dilution series). 50 uL of each spiked serum sample was extracted as above.
LC-MS/MS was performed on a Waters Acquity M-Class UPLC coupled to a Waters Xevo TQ-S triple quadrupole mass spectrometer. […] Flow rate was 3.0 μL/min and injection volume was 2.0 μL. Samples were held at 6° C. in the autosampler, and the column was operated at 70° C. The MS was operated in selected reaction monitoring (SRM) mode, where a parent ion is selected by the first quadrupole, fragmented in the collision cell, then a fragment ion selected for by the third quadrupole. Product ions, collision energies, and cone voltages were optimized for each analyte by direct injection of individual synthetic standards. Inter-channel delay was set to 3 ms. The MS was operated in positive ionization mode with the capillary voltage set to 3.6 kV. […] Desolvation gas flow was […], cone gas flow was 150 L/hr, and collision gas flow was 0.2 mL/min. Nebulizer pressure (nitrogen) was set to 7 Bar. Argon was used as the collision gas.
Each target analyte was visually inspected for retention time and peak area integration. Peak areas were extracted for target compounds detected in biological samples and normalized to the peak area of the appropriate internal standard in each sample using in-house R Script (TQS-tools). CBD concentrations were calculated in nanograms per milliliter of extract (0.06 mL) and then back calculated to nanograms per mL of serum (0.05 mL of serum).
LOD are calculated based on the standard deviation of the response (Sy) of the 0 point calibration standard (i.e. 0 ng/mL CBD as an estimate on noise) and the slope of the calibration curve (S) at levels approximating the LOD according to the formula: LOD=3*(Sy/S). LOQ=10*(Sy/S).

Structures are written as SMILES. “And” between values parts separate entries of the source, which are not always exact repeats. Identical values can stand only once. Marks after values point to notes of the source that are not given here.

The AUC(0-t) is exposure summed from dosing to a finite time, without extrapolation to infinity. A higher AUC(0-t) goes with high exposure. For `C=C(C)[C@@H]1CCC(C)=C[C@H]1c1c(O)cc(CCCCC)cc1O` [cannabidiol], in series [1] (dosing at 2 mg/kg), the Average retention time is 6 h. The Peak concentration entry in series [1] (dosing at 2 mg/kg, average 20 mg total dose) is “approximately 100 ug/kg”. Besides, in series [1] (oral dosing at 2 mg/kg), the Total absorption entry is recorded as “less than 20%”. The Cannabidiol in serum was 24.44 ppb and 26.32 ppb and 44.14 ppb and 45.40 ppb and 28.10 ppb and 31.02 ppb and 378.59 ppb and 535.08 ppb and 32.85 ppb and 34.26 ppb in series [2] (60 min after CBD oil 2 mg/kg oral); 1.69** ppb and 1.82** ppb and 1.53** ppb and 51.48 ppb and 68.31 ppb in series [2] (4 hr after CBD oil 2 mg/kg oral); 65.42 ppb and 79.30 ppb and 1.82** ppb and 2.22* ppb and 44.23 ppb and 46.05 ppb and 365.18 ppb and 376.28 ppb and 71.64 ppb and 79.59 ppb in series [2] (8 hr after CBD oil 2 mg/kg oral); 42.76 ppb and 44.88 ppb and 141.92 ppb and 147.74 ppb and 10.28 ppb and 10.31 ppb and 13.95 ppb and 17.17 ppb and 0.18** ppb and 0.36** ppb and 33.12 ppb and 35.88 ppb in series [2] (24 hr after CBD oil 2 mg/kg oral). The AUC(0-t) in series [2] (serum, po, 2 mg/kg) stood at 154 ng·h/mL.
